Experimental data published in PMC7071032, “In Vitro Inhibition of Hsp90 Protein by Benzothiazoloquinazolinequinones Is Enhanced in The Presence of Ascorbate. A Preliminary In Vivo Antiproliferative Study” (Molecules, 2020).

Experiments:
[1] = test system: panel of cancer cells (T24, DU-145, MCF-7); experiment: MTT reduction assay, panel of cancer cells (means, ranges, selectivity index); type: cell-based, human; settings: IC50 values of fibroblasts (AG 1523)/IC50 values of tumor cells (T24, DU-145, MCF-7)
Protocol: (§1) As positive control, two well-known anticancer drugs, namely TAM and 5-FU, were also tested on these cell lines. […] Regarding 5-FU, it is a broad-spectrum chemotherapeutic drug used to treat a variety of malignancies. Particularly, it has a long history of use against bladder tumors.
Such a selective index was calculated as the ratio between IC50 values of healthy cells/IC50 values in cancer cells.
(§2) Cells were seeded into 96-well plates at a density of 10,000 cells/well for 24 h and then incubated for 48 h with or without the quinone derivatives. […] The IC50 values were determined using the GraphPad Prism software (San Diego, CA, USA). Further incubation procedures and optical density reading of colored solutions were performed according to Benites et al..

[2] = test system: MCF-7 (breast) cells; experiment: MTT reduction assay, MCF-7 cells; type: cell-based; settings: Homo sapiens, MCF7, 48 h incubation, read-out: IC50 ± SEM MCF-7
Protocol: as §1
(§3) Cell culture conditions were the same as reported elsewhere. Briefly, cell lines were kept in DMEM containing 10% fetal calf serum. In addition, 100 U/mL of penicillin and 100 µg/mL streptomycin from Gibco (Grand Island, NY, USA) were further added. Cell cultures were kept at 37 °C under an atmosphere of 95% air/5% CO2 and 100% humidity. Sodium L-ascorbate, menadione (vitamin K3), TAM, and 5-FU were purchased from Sigma (St. Louis, MO, USA).
(§4) The cytotoxicity of the quinones was assessed by following the reduction of MTT (3-(4,5-dimethylthiazol-2-yl)-2,5-diphenyltetrazolium bromide) to formazan blue and the capability of cancer cells to proliferate, namely a clonogenic assay.
as §2

[3] = test system: non-tumor fibroblasts AG 1523; experiment: MTT reduction assay, non-tumor fibroblasts; type: cell-based; settings: Homo sapiens, AG1523, 48 h incubation, read-out: IC50 ± SEM AG 1523
Protocol: as §1, §3, §4, §2

[4] = test system: T24 (bladder) cells; experiment: MTT reduction assay, T24 cells; type: cell-based; settings: Homo sapiens, T-24, 48 h incubation, read-out: IC50 ± SEM T24
Protocol: as §1, §3, §4, §2

[5] = test system: DU-145 (prostate) cells; experiment: MTT reduction assay, DU-145 cells; type: cell-based; settings: Homo sapiens, DU-145, 48 h, read-out: IC50 ± SEM DU-145
Protocol: as §1, §3, §4, §2

[6] = test system: poly(ADPribose)polymerase (PARP); experiment: Immunoblot of PARP protein integrity in T24 cells; type: cell-based, human; settings: 5 µM, 4 h, regardless of the presence of ascorbate (1 mM)
Protocol: Figure 1 Effects of selected quinones of Hsp90 (A) and poly(ADPribose)polymerase (PARP) (B) protein integrity in T24 cells. […] Ctl represents control untreated cells. * p < 0.05 as compared to control conditions. […] This was the case regardless of the presence of ascorbate (1 mM). The obtained results make a potential role of apoptosis unlikely to be the underlying mechanism of cell impairment induced by quinones, including menadione. Indeed, PARP is a substrate of caspase-3, therefore, when an apoptosis process is triggered, it is expected that PARP protein will be cleaved yielding a second protein band also recognized by the anti-PARP antibody. Cancer cells were incubated for 4 h in the absence and in the presence of compounds. Afterward, cells were washed twice with ice-cold PBS and then resuspended in RIPA lysis buffer supplemented with 1% protease inhibitor cocktail (Sigma–Aldrich, St. Louis, MO, USA) and 3% phosphatase inhibitor cocktail (Calbiochem, Darmstadt, Germany). Treatment of samples and electrophoresis conditions were conducted as previously reported. Mouse monoclonal primary antibodies against hsp90α/β C-terminus (F8), and against β-actin (clone AC-15), were purchased from Santa Cruz Biotechnology (Santa Cruz, CA, USA) and from Abcam (Cambridge, UK), respectively. Rabbit polyclonal antibodies against PARP were purchased from BD Biosciences (San Diego, CA, USA). […]

[7] = test system: Hsp90; experiment: Immunoblot of Hsp90 protein integrity in T24 cells; type: cell-based, human; settings: 5 µM quinone plus 1 mM ascorbate, 4 h
Protocol: Nevertheless, when incubation was done in the presence of 1 mM ascorbate (vitamin C) plus quinones (including menadione), a new peptide fragment of about 70 kD was detected by the antibody against Hsp90.
Figure 1 Effects of selected quinones of Hsp90 (A) and poly(ADPribose)polymerase (PARP) (B) protein integrity in T24 cells. Cancer cells were incubated for 4 h with 5 µM menadione (K3), 15, 16, 19, or 20 either in the absence or in the presence of 1 mM ascorbate (Asc). Ctl represents control untreated cells. * p < 0.05 as compared to control conditions.
Cancer cells were incubated for 4 h in the absence and in the presence of compounds. Afterward, cells were washed twice with ice-cold PBS and then resuspended in RIPA lysis buffer supplemented with 1% protease inhibitor cocktail (Sigma–Aldrich, St. Louis, MO, USA) and 3% phosphatase inhibitor cocktail (Calbiochem, Darmstadt, Germany). Treatment of samples and electrophoresis conditions were conducted as previously reported. Mouse monoclonal primary antibodies against hsp90α/β C-terminus (F8), and against β-actin (clone AC-15), were purchased from Santa Cruz Biotechnology (Santa Cruz, CA, USA) and from Abcam (Cambridge, UK), respectively. Rabbit polyclonal antibodies against PARP were purchased from BD Biosciences (San Diego, CA, USA). […]

Compound | MSI: mean selective index [1] | IC50 [2] [µM] | melting point [°C] | IC50 [3] [µM] | IC50 [4] [µM] | IC50 [5] [µM] | PARP cleavage [6] | Hsp90 protein cleavage [7]
CCCCCC1(O)C2=C(N=C3Sc4cc(C)ccc4N31)C(=O)c1ccccc1C2=O (centres unmarked) [Compound 17] | 1.09 | 5.26 ± 0.22 | 129 to 129.5 | 7.5 ± 0.69 | 6.86 ± 0.33 | 8.46 ± 0.31 |  | 
CC1=CC(=O)c2ccccc2C1=O [menadione, reference compound] |  |  |  |  |  |  | neither the quinone derivatives nor menadione induced a detectable PARP cleavage | strong Hsp90 cleavage
